Entries after “also recorded” stand apart in the source; their conditions may differ.

Test [1] has as its system TNF-α. Briefly: Blast-induced TNF-α protein levels in auditory brain regions (ELISA and Western blot). It counts as in vivo, rat. The method, then:
The therapeutic drug used was 3,6′-dithiothalidomide, which was synthesized according to a published procedure to greater than 99.8% chemical purity (Baratz et al., 2011; W. Luo et al., 2008). The drug was freshly prepared prior to each study. 3,6′-dithiothalidomide was prepared as a suspension in 1% carboxymethyl cellulose to provide a final concentration of 28 or 56 mg/kg (0.1 mL/10 g and 0.1 mL/100 g body weight injection in mice and rats, respectively), and was administered intraperitoneally (i.p.). These concentrations of 3,6′-dithiothalidomide are equimolar to 25 and 50 mg/kg of thalidomide.
(§1) Each of the rats was subjected to blast exposure in the left ear using a shock tube (ORA Inc.) located at the Wayne State University Bioengineering Center. The blast exposure of each rat was performed under anesthesia with a mixture of air (1 liter/min) and isoflurane (5% v/v). The rat was placed on supportive netting with a metal surround and secured on a pole with its head facing the oncoming shockwave. During blast exposure, the rat's right ear was occluded with a silicone earplug (Mack's; McKeon Products, Warren, Mich.), followed by application of mineral oil to seal any remaining openings. The average energy under 10 kHz measured at 22 psi was equivalent to 150 kPa or 197.5 dB SPL. After blast exposure, each rat was transferred to a polycarbonate cage.
Two exposed groups received either 56 mg/kg 3,6′-dithiothalidomide i.p. or vehicle for two days starting on the same day of the blast exposure. Another two exposed groups received 56 mg/kg 3,6′-dithiothalidomide i.p. or vehicle treatment for five days starting on the day of the blast exposure. Two more exposed groups received 56 mg/kg 3,6′-dithiothalidomide i.p. or vehicle treatment for five days starting on the fifth day after blast exposure. On the last day of the drug/vehicle injection, brain samples were collected. ELISA and Western blot was performed to determine the effects of blast and 3,6′-dithiothalidomide treatment on TNF-α protein levels.

In a further test the test system is blast-exposed rats. The experiment in a line: Blast-induced tinnitus behavioral testing (gap detection and PPI, startle reflex), 3,6′-dithiothalidomide. It counts as in vivo, rat. The procedure:
as §1
Thirty two rats from Example 10 were used. Behavioral tinnitus testing, including gap detection and PPI testing, was conducted with Hamilton-Kinder startle-reflex hardware and software. During behavioral testing, each rat was placed in an individual noise-attenuation chamber to perform gap and PPI testing. In the gap procedure, each rat was presented with a constant 60-dB SPL background noise composed of 2,000 Hz bandpass signals at 6-8, 10-12, 14-16, 18-20, or 26-28 kHz or broadband noise (BBN; 2-30 kHz). A 115 dB SPL, 50 ms noise-burst was used as the startle stimulus to induce the acoustic startle reflex. The background noise session contained two conditions, one condition was the startle only condition in which rat was presented with the startle stimulus alone, and the other condition was the gap condition in which a rat was presented with a startle stimulus preceded by a silent gap embedded within the background noise. Silent gaps were 40 ms in duration with a lead interval of 90 ms to the startle stimulus. The startle reflex of rats was measured in response to 3 conditions: 1) background noise alone, 2) startle only, and 3) gap. Detection of the gap results in a reduction in the startle amplitude. Development of tinnitus in a specific frequency band impairs gap detection in the corresponding gap-carrier band, and thus, the startle amplitude reaches amplitudes elicited without the gap. For the PPI procedure, the parameters were almost the same as with gap except that no background noise or silent gap was used. The startle amplitude of rats in response to the two conditions was measured: the startle-only condition and a prepulse followed by the startle stimulus. In the latter condition, a 60-dB SPL, 40-msec prepulse was introduced 90 msec before the startle stimulus. The acoustic startle reflex of the rat decreased in response to the prepulse except when the rat had hearing loss at a frequency similar to the prepulse.
Rats were exposed or sham-exposed to a blast shockwave. To determine whether TNF-α is involved in blast-induced tinnitus, the rats were injected once daily for 5 days with 3,6′-dithiothalidomide starting 7 days after blast exposure. Behavioral testing and ABR recordings started 1 day after drug injection and lasted for three weeks.

Test [2] has as its system ionized calcium-binding adapter molecule 1 (Iba-1). Briefly: Iba-1 immunostaining densitometry of microglia after blast. The conditions noted are these: immunostained microglia, FIG. 23A. The class given is in vivo, rat. From the text:
(§2) FIGS. 23A and 23B depict densitometry measurements of ionized calcium-binding adapter molecule 1 (Iba-1) and TNF-α expression, respectively, as observed by fluorescence microscopy of immunohistochemistry-stained microglia. […] Error bars in FIGS. 23A-23B depict standard deviation.

Test [3] has as its system TNF-α. Briefly: TNF-α immunostaining densitometry of microglia and astrocytes after blast. It counts as in vivo, rat.
Source text: as §2
(§3) FIGS. 24A and 24B depict densitometry measurements of glial fibrillary acidic protein (GFAP) and TNF-α expression, respectively, as observed by fluorescence microscopy of immunohistochemistry-stained AC astrocytes. […] The decrease in astrocyte TNF-α expression was relatively smaller than the decrease in microglial TNF-α expression (compare […] with FIG. 23B). […] Error bars in FIGS. 24A-24B depict standard deviation.

For test [4], the system named is glial fibrillary acidic protein (GFAP). Briefly: GFAP immunostaining densitometry of AC astrocytes after blast. The class given is in vivo, rat. To be noted: immunostained AC astrocytes, FIG. 24B.
Source text: as §3

The subject of another test is C75BL6 mice. Briefly: Noise-induced tinnitus, gap detection, 3,6′-dithiothalidomide. It counts as in vivo, mouse. The method, then:
Tinnitus was assessed using the gap detection paradigm.
A group of C75BL6 mice underwent 4 days of gap detection testing. On the fifth day, the mice were exposed to 123-dB noise in their left ears for two hours, which was followed immediately by the administration of 3,6′-dithiothalidomide at a dose of 28 mg/kg. The drug was administered daily for five days. On day 10 post noise exposure, gap detection tests were resumed to test the animals' performance. Impaired gap detection compared to prenoise exposure performance is behavioral evidence of tinnitus.

For `O=C1NC(=S)CCC1N1C(=O)c2ccccc2C1=S` (centres unmarked) [3,6′-dithiothalidomide], the “TNF-α protein levels in AC, ELISA” value with TNF-α [1] (blast-exposed rat AC, 56 mg/kg i.p., FIG. 10) is “reduced TNF-α protein levels”. Also, the “TNF-α protein levels in DCN, ELISA” value with TNF-α [1] (blast-exposed rat DCN, 56 mg/kg i.p., FIG. 11) is “reduced TNF-α protein levels”. Besides, the “TNF-α protein levels in IC, ELISA” value with TNF-α [1] (blast-exposed rat IC, 56 mg/kg i.p., FIG. 12) is “reduced TNF-α protein levels”. In addition, the “statistical significance of the reduction of TNF-α protein levels in IC” value with TNF-α [1] (blast-exposed rat IC, FIG. 12) is listed as “did not achieve statistical significance”. For the same compound, the “translational/posttranslational increase in the TNF-α protein level” value in the test with TNF-α [1] (blast-exposed rats) is recorded as “cannot block such an increase”. In addition, in the test with TNF-α [1] (group treated five days starting on the day of blast (5 Days), P<0.05), the “reduction in TNF-α protein levels in DCN vs corresponding vehicle group” value is on record as “statistical significance”. Also, the “reduction in TNF-α protein levels in AC vs corresponding vehicle group” value with TNF-α [1] (group treated five days starting on the fifth day after blast (10 Days), P<0.05) is recorded as “statistical significance”. The “statistical significance of the reduction of TNF-α protein levels in AC and DCN” value in the test on TNF-α [1] (rat AC and DCN, vs vehicle, P<0.05) was “reached statistical significance; also recorded: significant reduction”. Moreover, the “TNF-α protein levels after blast exposure” value in the test on TNF-α [1] (rat AI, DCN and IC, 56 mg/kg i.p., 2, 5 and 10 days after blast, FIGS. 10-13) was “partially reduced TNF-α protein levels”. Moreover, the “startle force of the startle-only condition, gap test” value with blast-exposed rats (acute tinnitus rats, 56 mg/kg i.p., post drug vs post blast, FIG. 14A) was “recovered significantly”. The “startle force of the startle-only condition, PPI test” value in the test on blast-exposed rats (acute tinnitus rats, 56 mg/kg i.p., post drug vs post blast, FIG. 14B) was “recovered significantly”. In the test with blast-exposed rats (deficit at 7 days after blast, after 5 days of treatment, FIG. 15A), the “gap ratio values (gap/startle-only response)” value is “recovered significantly”. The “PPI ratio values (PPI/startle-only response)” value in the test with blast-exposed rats (deficit at 7 days after blast, after 5 days of treatment, FIG. 15B) was “recovered significantly”. Moreover, the tinnitus score entry with blast-exposed rats (tinnitus 7 days after blast, after 5 days of treatment, FIG. 16A) is reported as “recovered significantly”. In addition, the “blast-induced microglial activation (Iba-I staining)” value in test [2] was “not blocked”. In addition, in the test on TNF-α [3] (immunostained AC astrocytes, FIG. 24A), the “blast-induced astrocyte TNF-α expression” value was “partially blocked”. Further, the “blast-induced microglial TNF-α expression” value in the test with TNF-α [3] (immunostained microglia, FIG. 23B) is given as “is blocked”. The “blast-induced astrocyte GFAP expression” value in test [4] is reported as “is blocked”. Besides, the “noise-induced tinnitus (startle-response ratio)” value in the test on C75BL6 mice (28 mg/kg, FIG. 25) is “prevents noise-induced tinnitus in mice”. Also, in the test with C75BL6 mice (123-dB noise 2 h, 28 mg/kg daily for five days, tested day 10 post exposure), the “gap detection performance after noise exposure” value is on record as “not significantly altered”.
